{
  "source": "patent US7166744B2",
  "about": "“Retinoid derivatives and methods for producing said compounds and anti-cancer pharmaceutical composition comprising said compounds” (Chebigen Co., Ltd., priority 2001, dated 2007)",
  "data": [
    {"test_system": "colon cancer cells", "test": "MTT proliferation assay, colon cancer cells (Table 1)", "type": "cell-based", "conditions": "48 hours, concentration required for 50% growth inhibition, read-out: IC50, activities of various retinoid derivatives in colon cancer cells", "experimental": "The effects of test compounds on proliferation of various cancer cells was examined by 3-(4,5-dimethylthiazol-2-yl)-2,5-diphenyltetrazolium bromide (MTT, Sigma) assay in a dose dependent manner. In the MTT assay, colon, liver, cervix, ovary, and breast cancer cell lines were treated with test compounds at various concentrations. Living cancer cells reduce MTT to dark blue MTT formazan that would be measured by absorbance.\nColon cancer cells, HCT116, DLD-1 and HT29, cervix cancer cells, HeLa and CaSki, ovary cancer cells, SKOV-3, 2774 and OVCAR-3, liver cancer cells, SK-Hep-1, PLCPRF5 and HepG2, and breast cancer cells, ZR75-1 and MDA-MB 231 were seeded at an initial density of 3000 cells per well in 96-well plates. After attachment of cells to the walls of the wells, the medium containing fresh retinoid was treated with various concentrations (0.5 μM, 1 μM, 2.5 μM, 5 μM, 10 μM) for 48 hours. 50 μl of MTT solution (2 mg/ml in PBS) was added to cell culture media. The reaction micture was incubated at 37° C. in a 5% CO2 atmosphere for 4 hours. The supernatant was removed and 150 μl of DMSO was added. The optical density was measured spectrophotometrically at 550 nm. […] For other retinoid derivatives according to the present invention, absorbances were measured by this procedure and IC50 values, concentrations required for 50% growth inhibition, were determined.", "units": {"IC50": "µM"}, "values": [
      {"compound": "CCCCS(=O)(=O)Oc1ccc(NC(=O)/C=C(C)/C=C/C=C(C)/C=C/C2=C(C)CCCC2(C)C)cc1", "note": "[KCBG43, 4-[(2E,4E,6E,8E)-3,7-dimethyl-9-(2,6,6-trimethyl-1-cyclohexenyl)-2,4,6,8-nonatetraenoyl]aminophenyl-1-butanesulfonate]", "IC50": 4},
      {"compound": "CCCC(=O)Nc1ccc(NC(=O)/C=C(C)/C=C/C=C(C)/C=C/C2=C(C)CCCC2(C)C)cc1", "note": "[KCBG40, (2E,4E,6E,8E)-[3,7-dimethyl-9-(2,6,6-trimethylcyclohex-1-enyl)-nona-2,4,6,8-tetraenoylamino]-(4-butyrylamino)phenylamide]", "IC50": 0.6},
      {"compound": "CC1=C(/C=C/C(C)=C/C=C/C(C)=C/C(=O)Nc2ccc(O)cc2O)C(C)(C)CCC1", "note": "[KCBG08, (2E,4E,6E,8E)-[3,7-dimethyl-9-(2,6,6-trimethylcyclohex-1-enyl)-nona-2,4,6,8-tetraenoyl]-(2,4-dihydroxy)phenylamide]", "IC50": "> 100"},
      {"compound": "4-(4-[(2E,4E,6E,8E)-3,7-dimethyl-9-(2,6,6-trimethyl-1-cyclohexenyl)-2,4,6,8-nonatetraenoyl]aminophenoxy)-oxo-hexanedioic acid [KCBG51]", "IC50": 4.5},
      {"compound": "CC(=O)C(=O)Oc1cc(O)ccc1NC(=O)/C=C(C)/C=C/C=C(C)/C=C/C1=C(C)CCCC1(C)C", "note": "[KCBG22, 2-[(2E,4E,6E,8E)-3,7-dimethyl-9-(2,6,6-trimethylcyclohex-1-enyl)-nona-2,4,6,8-tetraenoylamino]-5-hydroxyphenyl-2-oxopropionate]", "IC50": 6},
      {"compound": "CCC(=O)C(=O)Oc1cc(O)ccc1NC(=O)/C=C(C)/C=C/C=C(C)/C=C/C1=C(C)CCCC1(C)C", "note": "[KCBG38, 2-[(2E,4E,6E,8E)-3,7-dimethyl-9-(2,6,6-trimethylcyclohex-1-enyl)-nona-2,4,6,8-tetraenoylamino]-5-hydroxyphenyl 2-oxobutanoate]", "IC50": 2},
      {"compound": "CCCC(=O)Nc1cc(NC(=O)/C=C(C)/C=C/C=C(C)/C=C/C2=C(C)CCCC2(C)C)ccc1OC(=O)CCC", "note": "[KCBG42, 2-Butyrylamino-4-(2E,4E,6E,8E)-[3,7-dimethyl-9-(2,6,6-trimethylcyclohex-1-enyl)-nona-2,4,6,8-tetraenoylamino]-phenylbutanoate]", "IC50": 7},
      {"compound": "4-(4-[(2E,4E,6E,8E)-3,7-dimethyl-9-(2,6,6-trimethyl-1-cyclohexenyl)-2,4,6,8-nonatetraenoyl]aminophenoxy)-4-oxobutanoic acid [KCBG32]", "IC50": 5},
      {"compound": "CC1=C(/C=C/C(C)=C/C=C/C(C)=C/C(=O)Nc2ccc(OC(=O)CCC(=O)O)cc2)C(C)(C)CCC1", "note": "[KCBG50, 4-(4-[(2E,4E,6E,8E)-3,7-dimethyl-9-(2,6,6-trimethyl-1-cyclohexenyl)-2,4,6,8-nonatetraenoyl]aminophenoxy)-4-oxobutanoic acid]", "IC50": 5.5},
      {"compound": "CC1=C(/C=C/C(C)=C/C=C/C(C)=C/C(=O)Nc2ccc(OC(=O)CCCCCCC(=O)O)cc2)C(C)(C)CCC1", "note": "[KCBG54, 4-(4-[(2E,4E,6E,8E)-3,7-dimethyl-9-(2,6,6-trimethyl-1-cyclohexenyl)-2,4,6,8-nonatetraenoyl]aminophenoxy)-oxo-octanedionic acid]", "IC50": 3.5},
      {"compound": "CCC(=O)Oc1cc(O)ccc1NC(=O)/C=C(C)/C=C/C=C(C)/C=C/C1=C(C)CCCC1(C)C", "note": "[KCBG15, 2-[(2E,4E,6E,8E)-3,7-dimethyl-9-(2,6,6-trimethylcyclohex-1-enyl)-nona-2,4,6,8-tetraenoylamino]-5-hydroxyphenylpropionate]", "IC50": 8},
      {"compound": "CC1=C(/C=C/C(C)=C/C=C/C(C)=C/C(=O)Nc2ccc(O)cc2OC(=O)CC(C)O)C(C)(C)CCC1", "note": "(stereo not drawn) [KCBG39, 2-[(2E,4E,6E,8E)-3,7-dimethyl-9-(2,6,6-trimethylcyclohex-1-enyl)-nona-2,4,6,8-tetraenoylamino]-5-hydroxyphenyl-3-hydroxybutanoate]", "IC50": 3},
      {"compound": "CC(=O)C(=O)Oc1ccc(NC(=O)/C=C(C)/C=C/C=C(C)/C=C/C2=C(C)CCCC2(C)C)cc1", "note": "[KCBG45, 4-[(2E,4E,6E,8E)-3,7-dimethyl-9-(2,6,6-trimethyl-1-cyclohexenyl)-2,4,6,8-nonatetraenoyl]aminophenyl-2-oxopropanoate]", "IC50": 7},
      {"compound": "CCCC(=O)Oc1ccc(NC(=O)C=C(C)C=CC=C(C)C=CC2=C(C)CCCC2(C)C)c(OC(=O)CCC)c1", "note": "[KCBG09, 5-Butyryloxy-2-[3,7-dimethyl-9-(2,6,6-trimethylcyclohex-1-enyl)-nona-2,4,6,8-tetraenoylamino]-phenylbutanoate]", "IC50": "10 to 20"},
      {"compound": "CC(=O)NC(CCC(N)=O)C(=O)Oc1ccc(NC(=O)/C=C(C)/C=C/C=C(C)/C=C/C2=C(C)CCCC2(C)C)cc1", "note": "(stereo not drawn) [KCBG52, 4-[(2E,4E,6E,8E)-3,7-dimethyl-9-(2,6,6-trimethylcyclohex-1-enyl)-nona-2,4,6,8-tetraenoylamino]phenyl-2-acetylamino-4-carbamoylbutanoate]", "IC50": 7},
      {"compound": "CCCC(=O)Oc1cc(NC(=O)/C=C(C)/C=C/C=C(C)/C=C/C2=C(C)CCCC2(C)C)ccc1O", "note": "[KCBG35, 5-(2E,4E,6E,8E)-[3,7-dimethyl-9-(2,6,6-trimethylcyclohex-1-enyl)-nona-2,4,6,8-tetraenoylamino]-2-hydroxyphenylbutanoate]", "IC50": 2},
      {"compound": "2-[(2E,4E,6E,8E)-3,7-Dimethyl-9-(2,6,6-trimethylcyclohex-1-enyl)-nona-2,4,6,8-tetraenoylamino]-5-hydroxyphenyl(dimethylamino)acetate [KCBG23]", "IC50": 3.5},
      {"compound": "CCCC(=O)Oc1ccc(NC(=O)/C=C(C)/C=C/C=C(C)/C=C/C2=C(C)CCCC2(C)C)cc1OC(=O)CCC", "note": "[KCBG34, 2-Butyryloxy-5-(2E,4E,6E,8E)-[3,7-dimethyl-9-(2,6,6-trimethylcyclohex-1-enyl)-nona-2,4,6,8-tetraenoylamino]phenylbutanoate]", "IC50": 3},
      {"compound": "4-(4-[(2E,4E,6E,8E)-3,7-dimethyl-9-(2,6,6-trimethyl-1-cyclohexenyl)-2,4,6,8-nonatetraenoyl]aminophenoxy)-oxo-heptanedioic acid [KCBG53]", "IC50": 6.5},
      {"compound": "CCC(=O)C(=O)Oc1ccc(NC(=O)/C=C(C)/C=C/C=C(C)/C=C/C2=C(C)CCCC2(C)C)cc1", "note": "[KCBG47, 4-[(2E,4E,6E,8E)-3,7-dimethyl-9-(2,6,6-trimethyl-1-cyclohexenyl)-2,4,6,8-nonatetraenoyl]aminophenyl-2-oxobutanoate]", "IC50": 1.8}
    ]},
    {"test_system": "HCT116 colon cancer cells", "test": "DAPI staining of nuclei, HCT116", "type": "cell-based", "conditions": "HCT116, 5 μM, 36 h", "experimental": "By DAPI (4,6-diamidino-2-phenylindole) staining assay for staining DNA in cellular nucleus, nuclear condensation and fragmentation, characteristic features of apoptosis, were observed. […] In FIG. 4, the control represents non-treated cells. The sub-G1 DNA contents of colon cancer HTC116 cells and breast cancer MCF-7 cells were measured by FACS (Fluorescence-Activated Cell Sorter) assay to quantify the apoptosis (FIG. 5). Finally, in order to further characterize the apoptosis observed in retinoid derivative-treated cells, the cleavage of apoptosis-related proteins, including PARP (poly(ADP-ribose)polymerase) and CPP32 (caspase-3) by Western blotting. […] PARP cleavage occurred in a time-dependent manner, in parallel with the induction of apoptosis (FIG. 6B). C in FIG. 6 represents the result of Western blotting of non-treated cells.\nMeanwhile, HPR which is a precursor during the synthesis process of KCBG60 is known to induce apoptosis. Considering that the cells aggregated into small spherical mass upon treatment with KCBG60, KCBG60 is expected to induce apoptosis. In order to confirm apoptosis induced by KCBG60 once again, KCBG60-treated HCT116 cells were stained with DAPI and observed for nuclear condensation, an indicative of apoptosis (FIG. 12).", "values": [
      {"compound": "CCCC(=O)Nc1ccc(NC(=O)/C=C(C)/C=C/C=C(C)/C=C/C2=C(C)CCCC2(C)C)cc1", "note": "[KCBG40, (2E,4E,6E,8E)-[3,7-dimethyl-9-(2,6,6-trimethylcyclohex-1-enyl)-nona-2,4,6,8-tetraenoylamino]-(4-butyrylamino)phenylamide]", "nuclear condensation and fragmentation (DAPI)": "largely showed nuclear fragmentation"}
    ]},
    {"test_system": "MMP-3 mRNA expression", "test": "RT-PCR of MMP-3 mRNA in HCT116", "type": "cell-based", "conditions": "HCT116, 1 μM, 36 hours", "experimental": "(§1) Previously, it was shown that the synthetic retinoid derivatives inhibit the transcriptional activity of AP-1. Also, it is well known that MMP (matrix metalloproteinase), a main target gene of AP-1 is involved in metastasis of cancer cells. Therefore, the inhibitive effects of the retinoid derivatives on metastasis of cancer was examined by RT-PCR analysis. Colon cancer HCT116 cells were treated with 1 μM retinoid for 36 hours. RNA was isolated from the cells and mRNA expression levels of MMP-1, -2 and -3 were analyzed by RT-PCR. […] As the control, GAPDH was used and it was confirmed that its expression was not affected by retinoid. Meanwhile, the expression level of MMP-3 was affected weakly by KCBG40, intermediately by KCBG41 but strongly by KCBG10 (FIG. 9).", "values": [
      {"compound": "CCCC(=O)Nc1ccc(NC(=O)/C=C(C)/C=C/C=C(C)/C=C/C2=C(C)CCCC2(C)C)cc1", "note": "[KCBG40, (2E,4E,6E,8E)-[3,7-dimethyl-9-(2,6,6-trimethylcyclohex-1-enyl)-nona-2,4,6,8-tetraenoylamino]-(4-butyrylamino)phenylamide]", "effect on MMP-3 mRNA expression level": "weakly"}
    ]},
    {"test_system": "MMP-1 mRNA expression", "test": "RT-PCR of MMP-1 mRNA in HCT116", "type": "cell-based", "conditions": "HCT116, 1 μM, 36 hours", "experimental": "as §1\n(§2) RNA was isolated from the cells and mRNA expression levels of MMP-1, -2 and -3 were analyzed by RT-PCR (FIG. 14).", "values": [
      {"compound": "CCCC(=O)Nc1ccc(NC(=O)/C=C(C)/C=C/C=C(C)/C=C/C2=C(C)CCCC2(C)C)cc1", "note": "[KCBG40, (2E,4E,6E,8E)-[3,7-dimethyl-9-(2,6,6-trimethylcyclohex-1-enyl)-nona-2,4,6,8-tetraenoylamino]-(4-butyrylamino)phenylamide]", "inhibition of MMP-1 mRNA expression": "affected very little"}
    ]},
    {"test_system": "MMP-2 mRNA expression", "test": "RT-PCR of MMP-2 mRNA in HCT116", "type": "cell-based", "conditions": "HCT116, 1 μM, 36 hours", "experimental": "as §1, §2", "values": [
      {"compound": "CCCC(=O)Nc1ccc(NC(=O)/C=C(C)/C=C/C=C(C)/C=C/C2=C(C)CCCC2(C)C)cc1", "note": "[KCBG40, (2E,4E,6E,8E)-[3,7-dimethyl-9-(2,6,6-trimethylcyclohex-1-enyl)-nona-2,4,6,8-tetraenoylamino]-(4-butyrylamino)phenylamide]", "inhibition of MMP-2 mRNA expression": "affected very little"}
    ]}
  ]
}
